Non-standard residues stand in square brackets, D forms with d. No end group written: not given here.
What was measured:
[1] = test system: Dr2a restricted human T cell clone reactive to MBP; test: Human T cell proliferation, Dr2a restricted clone; format: cell-based
Experimental: Human T cells reactive to MBP (83-99) may alternatively be used to measure the ability of the peptide analog to inhibit proliferation of T cells induced by native MBP (83-99) peptide. MBP-specific T cells may be obtained as previously described by Martin et al., J. Immunol. 148:1359-1366, 1992. Briefly, T cell lines are established by culture of human T cells with irradiated, DR-matched peripheral blood cells in MEM supplemented with 2 mM L-glutamine, 50 μg/ml gentamicin, penicillin and streptomycin, 100 U/ml rIL-2, and 10% human AB negative serum. Proliferation of these T cell lines is stimulated by culturing a clone with varying concentration (1.1-30 μM) of native […] peptide, 50 μM of the peptide analog or SWM peptide, in the presence of irradiated, DR matched peripheral blood cells, following incubation for approximately 60 hours, the cells are pulsed with ^3H-thymidine for 12 hours and harvested. The amount of incorporated ^3H-thymidine is measured.
The ability of the peptide analogs NBI-5719, 5748, 5765, 5788 and 5789 (SEQ ID NOs: 4-8 respectively) to affect human T cell proliferation was assessed. […] The amount of tritiated thymidine incorporated was measured, and the data represented as the mean plus or minus the standard error of the mean of replicate samples.
The potency of NBI-5788 (SEQ ID NO:7) was then determined by varying concentrations of the APL. […]

[2] = test system: T cell cultures from multiple sclerosis patients; test: Th2/Th1 (IL-13/IFN-γ) activity of T cell cultures of MS patients by dose group; format: in vivo, human; details: 1, 5 and 20 mg dose groups, weeks 3, 5 and 8; most prominently in the 5 and 20 mg dose groups, FIG. 34
Experimental: T cell analyses (cytokine production) were performed at Week 1 (pre-dosing), at Week 3 (=just prior to third dose), at Week 5 (1 week after last dose) and Week 8 (4 weeks after last dose). Tritiated thymidine uptake was measured using a beta scintillation counter (Topcount, Packard).
Interferon-γ(marker for Th1 activity) and IL-13 (marker for Th2 activity) were measured by Enzyme-Linked Immuno-Assay (ELISA) in T cell culture supernatants collected prior to [^3H]-thymidine incorporation (proliferation assay).
To measure IFN-γ produced by T cell cultures, a sandwich ELISA method was employed. Microtiter plates were coated with 2 μg/ml capture antibody (Pharmingen, San Diego) in 0.1 M NaHCO3 (pH=8.2) overnight at 4° C. Plates were then incubated with blocking buffer (1% solution [w/v] of casein [Sigma] in water, pH=8.2) for at least 30 minutes at room temperature to block non-specific binding sites. […] The reaction was stopped by the addition of 0.2N H2SO4 and absorbance at 450 nm was determined using a microplate spectrophotometer (Molecular Dynamics, Sunnyvale, Calif., USA). […]
To measure IL-13 produced by T cell cultures, a sandwich ELISA method was employed. […] The reaction was stopped by the addition of 0.2N H2SO4 and absorbance at 450 nm was determined using a microplate spectrophotometer (Molecular Dynamics, Sunnyvale, Calif., USA). […]

Substance: MBP(83-99) (83E>a, 84N>K, 89F>L, and 91K>A) ([dA]KPVVHLFANIVTPRTP) [NBI-5788]
- inhibition of proliferative response of Dr2a restricted T cell clone to MBP(83-99) ([1]; 50 μM peptide, MBP(83-99) 1.1-30 μM, FIGS. 13 and 14): inhibited the ability of a human Dr2a restricted T cell clone to respond
- inhibition of response of Dr2a T cell line to MBP(83-99), potency ([1]; APL 2, 10 or 50 μM, effect at both 10 and 50 μM, SWM 50 μM, FIG. 15): significantly altered the ability of the Dr2a T cell line to respond to MBP(83-99)
- ratio of overall Th2-type to overall Th1-type activities (IL-13/IFN-γ) [2]: clear shift to an overall Th2 activity

— patent US6379670B1, “Methods for treatment of multiple sclerosis using peptide analogs of human myelin basic protein” (Neurocrine Biosciences, Inc., priority 1994, dated 2002)
